# Patent US20050143927A1, “Method for estimating or predicting the anti-tumor activity of a compound and for estimating or predicting the tumor growth in mammals” (Pharmacia Italia S.p.A., priority 2002, published 2005)
# Tested on: GTL16 (human stomach carcinoma)
# Assay: Tumor growth model for treated subjects, GTL16 inoculated subcutaneously in athymic nude mice (Experiment-A)
# Format: in vivo
# Text: The cell line GTL16 (human stomach carcinoma) was inoculated subcutaneously on the back of 44 athymic nude male mice, initially weighing 17.9-28.1 g.
# The dimensions of the tumor can be taken applying different types of measurements broadly classifiable as measurements of linear dimensions, of volume (or mass) and cell number. For tumors that maintain more or less a spherical morphology, as in the case of solid tumors, the measurement of the three principal diameters results the most adequate, as well as the most practiced solution. Nevertheless, in the case of subcutaneous tumors, the tumor can be considered of spherical shape only during the initial phase of growth; in the following phases, the dimension perpendicular to the skin is generally much smaller than the percutaneous dimensions, conferring to the mass a plaque-like shape or an hemi-ellipsoidal shape. In the experiments taken into consideration, only the dimensions of the two percutaneous diameters were directly measured with vernier calipers. The third dimension was not directly measured, because of the limited accessibility (which would have required a greater invasiveness), in the assumption that two measures were anyhow sufficient to guarantee a good approximation of the tumor mass (K. Rygaard and M. Spang-Thomsen, “Quantitation and Gompertzian analysis of tumor growth”. Breast Cancer Research and Treatment, 46: 303-312,1997).
# The volume of a tumor can be indirectly calculated by applying the following empirical formula: [formula] where DMIN and DMAX denote, respectively, the smallest and the largest percutaneous diameter. Such empirical formula hypothesizes that the neoplasia has an ellipsoidal shape (D. A. Cameron, W. M. Gregory, A. Bowman, E. D. C. Anderson, P. Levack, P. Forouhi and R. F. C. Leonard, “Identification of long-term survivors in primary breast cancer by dynamic modeling of tumour response”. British Journal of Cancer, 83(1): 98-103, 2000, Hammond, L. A.; Hilsenbeck, S. G.; Eckhardt, S. G.; Marty, J; Mangold, G.; MacDonald, G. R.; Rowinsky, E. K.; Von Hoff, D. D; Weitman S. Enhanced antitumour activity of 6-hydroxymethylacylfulvene in combination with topotecan or paclitaxel in the MV522 lung carcinoma xenograft model. European Journal of Cancer 2000, 36, 2430-2436) obtained by the rotation of a hemi-ellipsoid (with DMIN and DMAX as axes of the percutaneous plane) around its largest axe. Assuming δ as a constant density equal to δ=10^−3g/mm^3, the empirical expression for the mass of the neoplasia results to be: [formula] The Measurement Error Model
# As it regards the model of tumor growth, the error model above introduced is instead known. For the observed measurements of a generic quantity y (for instance the weight of the tumor), the constant coefficient of variation error model (3.5 and 3.6) asserts that the standard deviation of the error varies linearly with the dimension the measured quantity. With an error model of this kind, the technique of the weighed least squares (Weighed Least Squares, WLS), described in M. E. Dagna, “Identificazione di modelli farmacocinetici di popolazione”; Università degli Studi di Pavia 1999, herein incorporated as far as the WLS technique is concerned, is more adequate.
# [1] = mean of the twelve treated mice (20, 30, 40 mg/kg q4dx3)
# [2] = mouse 0, 20 mg/kg iv-bolus q4dx3
# [3] = mouse 26, 40 mg/kg iv-bolus q4dx3
# [4] = mouse 28, 30 mg/kg iv-bolus q4dx3
# [5] = mouse 31, 20 mg/kg iv-bolus q4dx3
# [6] = mouse 55, 20 mg/kg iv-bolus q4dx3
# [7] = mouse 59, 30 mg/kg iv-bolus q4dx3
# [8] = mouse 64, 30 mg/kg iv-bolus q4dx3
# [9] = mouse 69, 20 mg/kg iv-bolus q4dx3
# [10] = mouse 78, 40 mg/kg iv-bolus q4dx3
# [11] = mouse 80, 40 mg/kg iv-bolus q4dx3
# [12] = mouse 81, 40 mg/kg iv-bolus q4dx3
# [13] = mouse 88, 30 mg/kg iv-bolus q4dx3
# [14] = treated mouse 0, 20 mg/kg iv-bolus q4dx3
# [15] = treated mouse 26, 40 mg/kg iv-bolus q4dx3
# [16] = treated mouse 28, 30 mg/kg iv-bolus q4dx3
# [17] = treated mouse 31, 20 mg/kg iv-bolus q4dx3
# [18] = treated mouse 55, 20 mg/kg iv-bolus q4dx3
# [19] = treated mouse 59, 30 mg/kg iv-bolus q4dx3
# [20] = treated mouse 64, 30 mg/kg iv-bolus q4dx3
# [21] = treated mouse 69, 20 mg/kg iv-bolus q4dx3
# [22] = treated mouse 78, 40 mg/kg iv-bolus q4dx3
# [23] = treated mouse 80, 40 mg/kg iv-bolus q4dx3
# [24] = treated mouse 81, 40 mg/kg iv-bolus q4dx3
# [25] = treated mouse 88, 30 mg/kg iv-bolus q4dx3
smiles,measurement,setting,value
"CC(=O)O[C@H]1C(=O)[C@@]2(C)[C@H]([C@H](OC(=O)c3ccccc3)[C@]3(O)C[C@H](OC(=O)[C@H](O)[C@@H](NC(=O)c4ccccc4)c4ccccc4)C(C)=C1C3(C)C)[C@]1(OC(C)=O)CO[C@@H]1C[C@@H]2O [Drug-A, paclitaxel]","K1, mean",[1],0.1879 day⁻¹
same,"K2, mean",[1],0.002921 mL/g/day
same,"λ0, mean",[1],0.2467
same,"λ1, mean",[1],0.1274
same,K1 (index of the tumor cells death rate),[2],0.2057 day⁻¹
same,K2 (index of the potency of the compound),[2],0.01878 mL/g/day
same,K1 (index of the tumor cells death rate),[3],0.1658 day⁻¹
same,K2 (index of the potency of the compound),[3],0.00315 mL/g/day
same,K1 (index of the tumor cells death rate),[4],0.1406 day⁻¹
same,K2 (index of the potency of the compound),[4],0.000759 mL/g/day
same,K1 (index of the tumor cells death rate),[5],0.2683 day⁻¹
same,K2 (index of the potency of the compound),[5],0.003356 mL/g/day
same,K1 (index of the tumor cells death rate),[6],0.2424 day⁻¹
same,K2 (index of the potency of the compound),[6],0.002721 mL/g/day
same,K1 (index of the tumor cells death rate),[7],0.192 day⁻¹
same,K2 (index of the potency of the compound),[7],0.000563 mL/g/day
same,K1 (index of the tumor cells death rate),[8],0.1646 day⁻¹
same,K2 (index of the potency of the compound),[8],0.001085 mL/g/day
same,K1 (index of the tumor cells death rate),[9],0.1515 day⁻¹
same,K2 (index of the potency of the compound),[9],0.001361 mL/g/day
same,K1 (index of the tumor cells death rate),[10],0.2056 day⁻¹
same,K2 (index of the potency of the compound),[10],0.001507 mL/g/day
same,K1 (index of the tumor cells death rate),[11],0.209 day⁻¹
same,K2 (index of the potency of the compound),[11],0.000178 mL/g/day
same,K1 (index of the tumor cells death rate),[12],0.2206 day⁻¹
same,K2 (index of the potency of the compound),[12],0.000314 mL/g/day
same,K1 (index of the tumor cells death rate),[13],0.08819 day⁻¹
same,K2 (index of the potency of the compound),[13],0.001276 mL/g/day
same,"LAMBDA0 (production rate of tumor cells, exponential phase)",[14],0.2601
same,"LAMBDA1 (tumor cells mass produced in the time unit, linear phase)",[14],0.1563
same,"LAMBDA0 (production rate of tumor cells, exponential phase)",[15],0.2087
same,"LAMBDA1 (tumor cells mass produced in the time unit, linear phase)",[15],0.1678
same,"LAMBDA0 (production rate of tumor cells, exponential phase)",[16],0.2396
same,"LAMBDA1 (tumor cells mass produced in the time unit, linear phase)",[16],0.16
same,"LAMBDA0 (production rate of tumor cells, exponential phase)",[17],0.2726
same,"LAMBDA1 (tumor cells mass produced in the time unit, linear phase)",[17],0.08095
same,"LAMBDA0 (production rate of tumor cells, exponential phase)",[18],0.2377
same,"LAMBDA1 (tumor cells mass produced in the time unit, linear phase)",[18],0.07223
same,"LAMBDA0 (production rate of tumor cells, exponential phase)",[19],0.2458
same,"LAMBDA1 (tumor cells mass produced in the time unit, linear phase)",[19],0.07275
same,"λ0 (production rate of tumor cells, exponential phase)",[20],0.2565
same,"λ1 (tumor cells mass produced in the time unit, linear phase)",[20],0.18
same,"λ0 (production rate of tumor cells, exponential phase)",[21],0.2464
same,"λ1 (tumor cells mass produced in the time unit, linear phase)",[21],0.1782
same,"λ0 (production rate of tumor cells, exponential phase)",[22],0.2438
same,"λ1 (tumor cells mass produced in the time unit, linear phase)",[22],0.1276
same,"λ0 (production rate of tumor cells, exponential phase)",[23],0.234
same,"λ1 (tumor cells mass produced in the time unit, linear phase)",[23],0.05985
same,"λ0 (production rate of tumor cells, exponential phase)",[24],0.2723
same,"λ1 (tumor cells mass produced in the time unit, linear phase)",[24],0.0685
same,"λ0 (production rate of tumor cells, exponential phase)",[25],0.2431
same,"λ1 (tumor cells mass produced in the time unit, linear phase)",[25],0.2049
